In brackets after ≈: the same amount, converted by molar mass.
Key:
A549 [1] = experiment: Inhibition of A549 cell migration by microdroplet migration assay; format: functional, cell-based; conditions: Homo sapiens
[2] = Clearance in female rat at 20 mg/kg, po and 2 mg/kg, iv; format: ADME, organism-based; conditions: in vivo
[3] = AUC (0-24h) in mouse at 20 mg/kg, po; format: ADME, organism-based; parameters: time < 24 hr, dose 20 mg/kg, route oral; conditions: plasma
Canis familiaris [4] = organism: Canis familiaris; experiment: (§1) Half life in male dog; format: ADME, organism-based, Canis lupus familiaris; conditions: in vivo
Canis familiaris [5] = organism: Canis familiaris; experiment: (§2) Volume of distribution in male dog; format: ADME, organism-based, Canis lupus familiaris; conditions: in vivo
[6] = molecular target: Vascular endothelial growth factor receptor 2 (Homo sapiens, UniProt P35968); experiment: Inhibition of KDR
Vascular endothelial growth factor receptor 2, sequence (P35968 whole entry): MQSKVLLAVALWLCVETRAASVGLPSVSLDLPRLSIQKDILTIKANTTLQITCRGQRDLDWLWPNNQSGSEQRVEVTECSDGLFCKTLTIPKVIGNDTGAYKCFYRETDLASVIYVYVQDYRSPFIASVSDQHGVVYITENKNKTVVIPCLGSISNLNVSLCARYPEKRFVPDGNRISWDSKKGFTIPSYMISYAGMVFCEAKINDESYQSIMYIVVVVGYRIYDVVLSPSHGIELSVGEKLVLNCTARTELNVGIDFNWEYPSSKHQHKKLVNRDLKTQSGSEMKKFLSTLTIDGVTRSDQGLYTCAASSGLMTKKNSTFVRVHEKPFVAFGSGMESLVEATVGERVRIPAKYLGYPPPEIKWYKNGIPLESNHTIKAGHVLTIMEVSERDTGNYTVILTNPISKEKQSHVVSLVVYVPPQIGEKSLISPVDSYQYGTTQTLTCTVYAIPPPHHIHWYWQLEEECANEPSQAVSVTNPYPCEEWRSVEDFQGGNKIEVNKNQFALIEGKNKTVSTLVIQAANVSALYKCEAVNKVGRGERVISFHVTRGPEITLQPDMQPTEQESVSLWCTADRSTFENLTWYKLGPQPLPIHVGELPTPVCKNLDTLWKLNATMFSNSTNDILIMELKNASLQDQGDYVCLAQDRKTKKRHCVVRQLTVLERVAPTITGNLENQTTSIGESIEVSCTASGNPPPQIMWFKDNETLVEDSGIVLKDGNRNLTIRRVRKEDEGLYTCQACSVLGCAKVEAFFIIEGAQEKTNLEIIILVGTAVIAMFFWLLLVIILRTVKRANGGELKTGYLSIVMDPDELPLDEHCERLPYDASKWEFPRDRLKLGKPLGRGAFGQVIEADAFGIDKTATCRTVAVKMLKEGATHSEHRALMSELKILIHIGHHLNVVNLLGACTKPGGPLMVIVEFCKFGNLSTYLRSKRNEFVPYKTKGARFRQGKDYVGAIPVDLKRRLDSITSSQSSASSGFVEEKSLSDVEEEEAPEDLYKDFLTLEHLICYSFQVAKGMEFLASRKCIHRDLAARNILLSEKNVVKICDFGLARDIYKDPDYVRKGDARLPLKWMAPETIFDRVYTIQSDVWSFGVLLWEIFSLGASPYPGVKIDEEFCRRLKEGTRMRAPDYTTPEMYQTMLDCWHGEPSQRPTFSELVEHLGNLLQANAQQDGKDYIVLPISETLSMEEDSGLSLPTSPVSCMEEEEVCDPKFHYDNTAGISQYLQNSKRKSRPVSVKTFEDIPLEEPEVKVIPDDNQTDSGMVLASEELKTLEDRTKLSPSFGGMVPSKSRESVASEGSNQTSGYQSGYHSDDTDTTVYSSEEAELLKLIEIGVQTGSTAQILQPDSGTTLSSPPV

[7] = Bioavailability in male dog; format: ADME, organism-based, Canis lupus familiaris; conditions: in vivo
[8] = Bioavailability in female rat at 20 mg/kg, po and 2 mg/kg, iv; format: ADME, organism-based; conditions: in vivo
[9] = Volume of distribution in female rat at 20 mg/kg, po and 2 mg/kg, iv; format: ADME, organism-based; conditions: in vivo, read-out: Vdss
[10] = molecular target: Proto-oncogene tyrosine-protein kinase Src (Homo sapiens, UniProt P12931)
Proto-oncogene tyrosine-protein kinase Src, sequence (P12931 2-536 limits assumed): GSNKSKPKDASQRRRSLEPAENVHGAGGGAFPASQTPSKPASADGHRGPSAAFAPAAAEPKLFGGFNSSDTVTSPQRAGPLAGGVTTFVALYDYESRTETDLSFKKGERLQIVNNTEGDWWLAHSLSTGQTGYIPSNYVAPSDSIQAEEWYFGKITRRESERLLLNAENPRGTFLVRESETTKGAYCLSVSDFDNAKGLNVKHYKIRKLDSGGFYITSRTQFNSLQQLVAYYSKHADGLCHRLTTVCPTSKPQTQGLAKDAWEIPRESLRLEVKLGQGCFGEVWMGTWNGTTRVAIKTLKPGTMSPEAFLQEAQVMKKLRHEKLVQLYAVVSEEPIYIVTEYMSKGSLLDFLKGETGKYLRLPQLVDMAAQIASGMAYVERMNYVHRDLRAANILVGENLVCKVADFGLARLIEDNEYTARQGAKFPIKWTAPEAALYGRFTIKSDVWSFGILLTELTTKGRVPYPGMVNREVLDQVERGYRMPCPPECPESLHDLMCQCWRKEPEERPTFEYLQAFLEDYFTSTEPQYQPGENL
Description: Inhibition of human c-Src in NIH3T3 cells

K562 = experiment: Antiproliferative activity against huamn K562 cell line; format: functional, cell-based; conditions: Homo sapiens
[11] = Dissociation constant, pKa of the basic side chain of compound; format: physicochemical
[12] = Lipophilicity, log D at pH 7.4; format: physicochemical; conditions: buffer
[13] = Aqueous solubility at pH 7.0; format: physicochemical
[14] = Percent of unbound ligand in human plasma; format: ADME, organism-based
[15] = Percent of unbound ligand in rat plasma; format: ADME, organism-based
[16] = Percent of unbound ligand in dog plasma; format: ADME, organism-based, Canis lupus familiaris
[17] = molecular target: Tyrosine-protein kinase CSK (Homo sapiens, UniProt P41240); experiment: Inhibition of recombinant CSK by ELISA
Tyrosine-protein kinase CSK, sequence (P41240 whole entry): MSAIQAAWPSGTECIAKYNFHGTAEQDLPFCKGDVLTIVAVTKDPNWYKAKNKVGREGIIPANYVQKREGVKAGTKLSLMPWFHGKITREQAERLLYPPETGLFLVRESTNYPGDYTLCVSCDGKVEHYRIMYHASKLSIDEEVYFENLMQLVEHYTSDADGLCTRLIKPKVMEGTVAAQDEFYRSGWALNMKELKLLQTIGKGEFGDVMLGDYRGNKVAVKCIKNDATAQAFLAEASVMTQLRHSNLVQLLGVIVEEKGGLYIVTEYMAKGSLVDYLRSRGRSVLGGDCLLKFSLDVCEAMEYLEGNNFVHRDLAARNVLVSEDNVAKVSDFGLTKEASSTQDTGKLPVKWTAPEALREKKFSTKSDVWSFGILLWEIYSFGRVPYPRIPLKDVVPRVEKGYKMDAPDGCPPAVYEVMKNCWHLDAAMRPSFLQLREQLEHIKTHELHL

[18] = molecular target: Vascular endothelial growth factor receptor 1 (Homo sapiens, UniProt P17948); experiment: Inhibition of recombinant FLT1 by ELISA
[19] = molecular target: Vascular endothelial growth factor receptor 3 (Homo sapiens, UniProt P35916); experiment: Inhibition of FLT4 by ELISA
[20] = molecular target: Platelet-derived growth factor receptor alpha (Homo sapiens, UniProt P16234); experiment: Inhibition of recombinant PDGFRalpha by ELISA
Platelet-derived growth factor receptor alpha, sequence (P16234 whole entry): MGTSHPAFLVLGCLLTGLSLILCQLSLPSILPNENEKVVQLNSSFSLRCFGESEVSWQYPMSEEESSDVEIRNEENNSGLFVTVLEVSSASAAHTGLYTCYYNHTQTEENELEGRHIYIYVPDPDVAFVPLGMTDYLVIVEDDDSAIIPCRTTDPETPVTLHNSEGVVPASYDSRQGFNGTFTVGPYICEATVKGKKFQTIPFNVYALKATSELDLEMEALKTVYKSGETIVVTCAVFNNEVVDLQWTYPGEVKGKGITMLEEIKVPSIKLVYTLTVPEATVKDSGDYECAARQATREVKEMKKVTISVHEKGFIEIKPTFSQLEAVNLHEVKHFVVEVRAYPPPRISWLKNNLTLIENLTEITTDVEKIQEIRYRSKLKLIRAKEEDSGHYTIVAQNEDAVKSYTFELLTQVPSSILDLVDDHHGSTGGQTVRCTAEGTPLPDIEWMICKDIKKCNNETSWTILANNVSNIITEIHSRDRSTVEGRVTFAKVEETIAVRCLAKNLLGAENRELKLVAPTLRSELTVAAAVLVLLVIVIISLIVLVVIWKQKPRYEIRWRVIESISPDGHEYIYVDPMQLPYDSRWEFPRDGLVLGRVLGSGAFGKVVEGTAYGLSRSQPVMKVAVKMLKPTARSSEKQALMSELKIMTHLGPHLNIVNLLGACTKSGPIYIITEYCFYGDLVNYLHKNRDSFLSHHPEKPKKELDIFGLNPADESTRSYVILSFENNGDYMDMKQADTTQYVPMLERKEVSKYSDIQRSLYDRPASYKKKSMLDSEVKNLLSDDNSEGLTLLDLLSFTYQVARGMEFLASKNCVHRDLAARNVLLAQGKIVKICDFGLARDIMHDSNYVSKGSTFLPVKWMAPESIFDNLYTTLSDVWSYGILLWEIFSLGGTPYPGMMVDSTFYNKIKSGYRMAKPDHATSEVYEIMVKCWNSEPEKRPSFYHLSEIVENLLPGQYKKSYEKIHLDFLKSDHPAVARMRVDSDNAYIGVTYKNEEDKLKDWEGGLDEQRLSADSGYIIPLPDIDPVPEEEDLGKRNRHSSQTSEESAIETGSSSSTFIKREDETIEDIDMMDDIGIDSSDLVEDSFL

[21] = molecular target: Fibroblast growth factor receptor 1 (Homo sapiens, UniProt P11362); experiment: Inhibition of recombinant FGFR1 by ELISA
Aurora kinase B = Aurora kinase B (Homo sapiens, UniProt Q96GD4); experiment: Inhibition of recombinant Aurora B by ELISA
Aurora kinase B, sequence (Q96GD4 whole entry): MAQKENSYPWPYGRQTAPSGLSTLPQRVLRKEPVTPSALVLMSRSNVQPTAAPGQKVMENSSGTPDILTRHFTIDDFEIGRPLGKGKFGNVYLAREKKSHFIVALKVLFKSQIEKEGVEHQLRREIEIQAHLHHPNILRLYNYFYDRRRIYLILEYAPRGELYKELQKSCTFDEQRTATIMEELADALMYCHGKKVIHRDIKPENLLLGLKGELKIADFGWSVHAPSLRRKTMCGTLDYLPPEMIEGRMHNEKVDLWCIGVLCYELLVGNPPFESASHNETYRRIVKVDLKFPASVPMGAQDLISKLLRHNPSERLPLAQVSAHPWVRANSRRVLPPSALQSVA

[22] = molecular target: Cyclin-dependent kinase 2 (Homo sapiens, UniProt P24941); experiment: Inhibition of CDK2 by SPA
[23] = molecular target: Dual specificity mitogen-activated protein kinase kinase; MEK1/2 (Homo sapiens, UniProt P36507+Q02750); experiment: Inhibition of MAPKK; format: protein assay
[24] = molecular target: Glycogen synthase kinase-3 beta (Homo sapiens, UniProt P49841); experiment: Inhibition of GSK3-beta
Glycogen synthase kinase-3 beta, sequence (P49841 whole entry): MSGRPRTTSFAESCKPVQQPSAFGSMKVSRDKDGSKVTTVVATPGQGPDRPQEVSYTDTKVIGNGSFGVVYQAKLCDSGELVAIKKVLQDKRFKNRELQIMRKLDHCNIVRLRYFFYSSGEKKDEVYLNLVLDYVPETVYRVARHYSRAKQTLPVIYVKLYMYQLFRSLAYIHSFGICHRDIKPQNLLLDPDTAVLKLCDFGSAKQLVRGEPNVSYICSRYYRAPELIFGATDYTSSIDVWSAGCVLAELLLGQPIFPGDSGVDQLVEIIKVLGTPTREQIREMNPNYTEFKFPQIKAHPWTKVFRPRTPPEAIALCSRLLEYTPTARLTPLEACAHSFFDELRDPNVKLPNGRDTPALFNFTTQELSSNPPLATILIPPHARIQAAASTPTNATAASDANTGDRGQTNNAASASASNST

[25] = Inhibition of Chk; parameters: species or system Homo sapiens
[26] = molecular target: c-Jun N-terminal kinase, JNK (Homo sapiens, UniProt P45983+P53779+P45984); experiment: Inhibition of JNK; format: protein assay
[27] = molecular target: 3-phosphoinositide-dependent protein kinase 1 (Homo sapiens, UniProt O15530); experiment: Inhibition of PDK
3-phosphoinositide-dependent protein kinase 1, sequence (O15530 whole entry): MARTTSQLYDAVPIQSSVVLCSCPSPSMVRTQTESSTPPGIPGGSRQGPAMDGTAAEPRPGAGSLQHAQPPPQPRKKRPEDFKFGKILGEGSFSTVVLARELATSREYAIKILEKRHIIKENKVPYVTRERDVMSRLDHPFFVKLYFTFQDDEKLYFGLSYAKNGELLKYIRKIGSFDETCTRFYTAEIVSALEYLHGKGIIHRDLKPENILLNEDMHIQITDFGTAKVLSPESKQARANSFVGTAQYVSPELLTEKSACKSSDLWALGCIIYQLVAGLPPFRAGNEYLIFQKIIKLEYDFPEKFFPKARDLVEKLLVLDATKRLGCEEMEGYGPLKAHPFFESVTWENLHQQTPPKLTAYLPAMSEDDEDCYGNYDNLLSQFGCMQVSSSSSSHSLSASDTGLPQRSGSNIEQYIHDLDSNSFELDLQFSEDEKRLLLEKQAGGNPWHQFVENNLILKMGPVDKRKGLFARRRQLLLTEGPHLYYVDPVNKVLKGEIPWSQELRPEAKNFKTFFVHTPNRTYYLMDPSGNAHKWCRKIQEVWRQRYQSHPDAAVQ

[28] = molecular target: cAMP-dependent protein kinase (PKA) (Homo sapiens, UniProt P22694+P17612+P22612); experiment: Inhibition of PKA; format: protein assay
[29] = Inhibition of PI3K; parameters: species or system Homo sapiens
[30] = (§3) Half life in rat at 25 mg/kg, po and 2 mg/kg, iv; format: ADME, organism-based; conditions: in vivo
[31] = as §3; format: ADME, organism-based; conditions: in vivo; remark: listed apart in the source
[32] = as §1; format: ADME, organism-based, Canis lupus familiaris; conditions: male, in vivo
[33] = Volume of distribution in male rat at 25 mg/kg, po and 2 mg/kg, iv; format: ADME, organism-based; conditions: in vivo, read-out: Vdss
[34] = Volume of distribution in female rat at 25 mg/kg, po and 2 mg/kg, iv; format: ADME, organism-based; conditions: in vivo, read-out: Vdss
[35] = as §2; format: ADME, organism-based, Canis lupus familiaris; conditions: male, in vivo, read-out: Vdss
[36] = Clearance in male rat at 25 mg/kg, po and 2 mg/kg, iv; format: ADME, organism-based; conditions: in vivo
[37] = Clearance in female rat at 25 mg/kg, po and 2 mg/kg, iv; format: ADME, organism-based; conditions: in vivo
[38] = Clearance in male dog; format: ADME, organism-based, Canis lupus familiaris; conditions: in vivo
[39] = Bioavailability in male rat at 25 mg/kg, po and 2 mg/kg, iv; format: ADME, organism-based; conditions: in vivo
[40] = Bioavailability in female rat at 25 mg/kg, po and 2 mg/kg, iv; format: ADME, organism-based; conditions: in vivo
[41] = Terminal half life in po dosed human; format: ADME, organism-based; conditions: in vivo, read-out: beta t1/2 (converted)
NIH3T3 = experiment: Antiproliferative activity against NIH 3T3 cells xenografted in athymic rat measured as inhibition of tumor volume at 6 mg/kg/day after 18 days; format: functional; conditions: NIH3T3, 432 h
HUVEC [42] = experiment: Inhibition of VEGF-stimulated HUVEC cell growth; format: functional, cell-based; conditions: Homo sapiens
HUVEC [43] = experiment: Inhibition of FGF-stimulated HUVEC cell growth; format: functional, cell-based; conditions: Homo sapiens
Calu-6 [44] = experiment: Inhibition of paxillin phosphorylation in Calu-6 xenograft tumor model at 20 mg/kg/day, po; format: functional; conditions: Homo sapiens
A549 [45] = experiment: Inhibition of paxillin phosphorylation in A549 cells by Western blotting at 1 uM; format: functional; conditions: Homo sapiens
Calu-6 [46] = experiment: Inhibition of FAK phosphorylation in Calu-6 xenograft tumor model at 20 mg/kg/day, po; format: functional; conditions: Homo sapiens
[47] = Permeability from apical to basolateral side of NIH 3T3 cell; format: ADME, cell-based, NIH3T3; conditions: mouse, not told; read-out: permeability

CN1CCC(COc2cc(OC3CCOCC3)c3c(Nc4c(Cl)ccc5c4OCO5)ncnc3c2)CC1
IC50 (A549 [1]): 0.3 µM | clearance [2]: 132 mL/min/kg | AUC(0-t) at 24 h [3]: 31000 ng·h/mL | T1/2 (Canis familiaris [4]): 22 h | Vdss (Canis familiaris [5]): 38 L/kg | IC50 [6]: 2 µM | bioavailability [7]: 57% | bioavailability [8]: 93% | Vd [9]: 23.4 L/kg | IC50 [10]: 0.006 µM

CN1CCN(CCOc2cc(OC3CCOCC3)c3c(Nc4c(Cl)ccc5c4OCO5)ncnc3c2)CC1 [SARACATINIB]
IC50 (A549 [1]): 0.14 µM | IC50 (K562): 0.22 µM | pKa [11]: 7.98 | logD [12]: 2.9 | solubility [13]: 240 µM (≈ 130 µg/mL) | fraction unbound [14]: 0.09 | fraction unbound [15]: 0.13 | fraction unbound [16]: 0.14 | IC50 [17]: 0.84 µM | IC50 [18]: > 100 µM | IC50 [19]: > 10 µM | IC50 [20]: 10 µM | IC50 [21]: > 10 µM | IC50 (Aurora kinase B): > 10 µM | IC50 [22]: 10 µM | IC50 [23]: 14 µM | IC50 [24]: > 10 µM | IC50 [25]: > 10 µM | IC50 [26]: > 10 µM | IC50 [27]: > 10 µM | IC50 [28]: > 10 µM | IC50 [29]: > 10 µM | AUC(0-t) at 24 h [3]: 12000 ng·h/mL | half-life [30]: 5 h | half-life [31]: 5 h | half-life [32]: 7 h | Vd [33]: 10 L/kg | Vd [34]: 10 L/kg | Vd [35]: 11.6 L/kg | clearance [36]: 20 mL/min/kg | IC50 [6]: 20.9 µM | clearance [37]: 16.7 mL/min/kg | clearance [38]: 11.7 mL/min/kg | bioavailability [39]: 79% | bioavailability [40]: 92% | bioavailability [7]: > 50% | half-life [41]: 40 h | inhibition in vivo at 6 mg/kg/day (NIH3T3): > 95% | IC50 (HUVEC [42]): > 5 µM | IC50 (HUVEC [43]): > 5 µM | inhibition in vivo at 20 mg/kg/day (Calu-6 [44]): > 80% | inhibition at 1 µM (A549 [45]): 70% | inhibition in vivo at 20 mg/kg/day (Calu-6 [46]): > 80% | Papp A→B [47]: > 30 ×10⁻⁶ cm/s

— ChEMBL document CHEMBL1137334 (J Med Chem, 2006)
